Measurements as given in ChEMBL document CHEMBL1201862, “PubChem BioAssay data set” (2004).
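A five-concentration, 48-hour dose response in 96-well plates underlies each endpoint, interpolated linearly between surrounding concentrations. Abbreviation: GI50, concentration required for 50% inhibition of growth.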 Active and inactive are the calls of the source. Cut-off read from the data, not from the text of the source: active = GI50 up to about 1.1 µM and inactive = higher.

Tests used:
Test in all cases: NCI tumour cell line growth inhibition, 48 h
NCI-H226 = test system: NCI-H226
HOP-62 = test system: HOP-62
UACC-62 = test system: UACC-62
M19-MEL = test system: M19-MEL
NCI-H23 = test system: NCI-H23
SK-OV-3 = test system: SK-OV-3
KM-20L2 = test system: KM-20L2
NCI-H522 = test system: NCI-H522
OVCAR-5 = test system: OVCAR-5
HL-60 = test system: HL-60
DMS-114 = test system: DMS-114
SNB-75 = test system: SNB-75
A549 = test system: A549
SN12C = test system: SN12C
K562 = test system: K562
SK-MEL-28 = test system: SK-MEL-28
OVCAR-3 = test system: OVCAR-3
IGROV-1 = test system: IGROV-1
CAKI-1 = test system: CAKI-1
KM12 = test system: KM12
U-251 = test system: U-251
M14 = test system: M14
ACHN = test system: ACHN
HCT-116 = test system: HCT-116
NCI-H460 = test system: NCI-H460
EKVX = test system: EKVX
SW-620 = test system: SW-620
DMS-273 = test system: DMS-273
SR = test system: SR
SF-268 = test system: SF-268
RPMI-8226 = test system: RPMI-8226
HOP-18 = test system: HOP-18
HOP-92 = test system: HOP-92
HT-29 = test system: HT-29
786-0 = test system: 786-0
CCRF-CEM = test system: CCRF-CEM
SF-539 = test system: SF-539
DLD-1 = test system: DLD-1
HCC 2998 = test system: HCC 2998
RXF 393 = test system: RXF 393
OVCAR-4 = test system: OVCAR-4
TK-10 = test system: TK-10
Malme-3M = test system: Malme-3M
SK-MEL-2 = test system: SK-MEL-2
UO-31 = test system: UO-31
SK-MEL-5 = test system: SK-MEL-5
MOLT-4 = test system: MOLT-4
SNB-78 = test system: SNB-78
HCT-15 = test system: HCT-15
OVCAR-8 = test system: OVCAR-8
SF-295 = test system: SF-295
LOX IMVI = test system: LOX IMVI
LXFL 529 = test system: LXFL 529
SNB-19 = test system: SNB-19
COLO 205 = test system: COLO 205
UACC-257 = test system: UACC-257
XF498 = test system: XF498
A498 = test system: A498

C[C@]12CCc3nn(-c4ccccc4)nc3C1CC[C@@H]1C2CC[C@]2(C)C(=O)CCC12 (stereo not given in full) was tested, and the GI50 (NCI-H226) was > 100 µM (inactive), the GI50 (HOP-62) was > 100 µM (inactive) and the GI50 (UACC-62) was > 100 µM (inactive). For the same compound, the GI50 (M19-MEL) was > 100 µM (inactive), the GI50 (NCI-H23) was > 100 µM (inactive) and the GI50 (SK-OV-3) was > 100 µM (inactive). The GI50 (KM-20L2) was > 100 µM (inactive), the GI50 (NCI-H522) was > 100 µM (inactive) and the GI50 (OVCAR-5) was > 100 µM (inactive). The GI50 (HL-60) was > 100 µM (inactive), the GI50 (DMS-114) was > 100 µM (inactive) and the GI50 (SNB-75) was > 100 µM (inactive). The GI50 (A549) was > 100 µM (inactive), the GI50 (SN12C) was > 100 µM (inactive) and the GI50 (K562) was 54.3 µM (inactive). The GI50 (SK-MEL-28) was > 100 µM (inactive), the GI50 (OVCAR-3) was > 100 µM (inactive) and the GI50 (IGROV-1) was > 100 µM (inactive). For the same compound, the GI50 (CAKI-1) was > 100 µM (inactive), the GI50 (KM12) was > 100 µM (inactive) and the GI50 (U-251) was > 100 µM (inactive). For the same compound, the GI50 (M14) was > 100 µM (inactive), the GI50 (ACHN) was > 100 µM (inactive) and the GI50 (HCT-116) was > 100 µM (inactive). The GI50 (NCI-H460) was > 100 µM (inactive), the GI50 (EKVX) was > 100 µM (inactive) and the GI50 (SW-620) was > 100 µM (inactive). The GI50 (DMS-273) was > 100 µM (inactive), the GI50 (SR) was > 100 µM (inactive) and the GI50 (SF-268) was > 100 µM (inactive). For the same compound, the GI50 (RPMI-8226) was > 100 µM (inactive), the GI50 (HOP-18) was > 100 µM (inactive) and the GI50 (HOP-92) was > 100 µM (inactive). For the same compound, the GI50 (HT-29) was > 100 µM (inactive), the GI50 (786-0) was > 100 µM (inactive) and the GI50 (CCRF-CEM) was > 100 µM (inactive). For the same compound, the GI50 (SF-539) was > 100 µM (inactive), the GI50 (DLD-1) was 93.3 µM (inactive) and the GI50 (HCC 2998) was > 100 µM (inactive). For the same compound, the GI50 (RXF 393) was > 100 µM (inactive), the GI50 (OVCAR-4) was > 100 µM (inactive) and the GI50 (TK-10) was > 100 µM (inactive). For the same compound, the GI50 (Malme-3M) was > 100 µM (inactive), the GI50 (SK-MEL-2) was > 100 µM (inactive) and the GI50 (UO-31) was > 100 µM (inactive). For the same compound, the GI50 (SK-MEL-5) was > 100 µM (inactive), the GI50 (MOLT-4) was > 100 µM (inactive) and the GI50 (SNB-78) was > 100 µM (inactive). The GI50 (HCT-15) was over 100 µM, the GI50 (OVCAR-8) was 94.2 µM (inactive) and the GI50 (SF-295) was > 100 µM (inactive). For the same compound, the GI50 (LOX IMVI) was 82.2 µM (inactive), the GI50 (LXFL 529) was > 100 µM (inactive) and the GI50 (SNB-19) was > 100 µM (inactive). For the same compound, the GI50 (COLO 205) was > 100 µM (inactive) and the GI50 (UACC-257) was > 100 µM (inactive).
With N#C/C(=C\c1ccc(O)cc1O)C(N)=O the GI50 (NCI-H226) was 41.6 µM (inactive), the GI50 (HOP-62) was > 100 µM (inactive) and the GI50 (UACC-62) was 58.6 µM (inactive). For the same compound, the GI50 (M19-MEL) was > 100 µM (inactive), the GI50 (NCI-H23) was 58.1 µM (inactive) and the GI50 (SK-OV-3) was 45.6 µM (inactive). For the same compound, the GI50 (KM-20L2) was 28.2 µM (inactive), the GI50 (NCI-H522) was 28.3 µM (inactive) and the GI50 (OVCAR-5) was > 100 µM (inactive). For the same compound, the GI50 (HL-60) was 53.6 µM (inactive), the GI50 (SNB-75) was 16.7 µM (inactive) and the GI50 (A549) was > 100 µM (inactive). The GI50 (SN12C) was > 100 µM (inactive), the GI50 (K562) was > 100 µM (inactive) and the GI50 (SK-MEL-28) was 93.3 µM (inactive). The GI50 (OVCAR-3) was > 100 µM (inactive), the GI50 (XF498) was 34.2 µM (inactive) and the GI50 (IGROV-1) was > 100 µM (inactive). For the same compound, the GI50 (CAKI-1) was 58.1 µM (inactive), the GI50 (KM12) was > 100 µM (inactive) and the GI50 (U-251) was > 100 µM (inactive). The GI50 (A498) was 65 µM (inactive), the GI50 (M14) was 82.2 µM (inactive) and the GI50 (ACHN) was 32.7 µM (inactive). The GI50 (HCT-116) was 94.2 µM (inactive), the GI50 (NCI-H460) was > 100 µM (inactive) and the GI50 (EKVX) was > 100 µM (inactive). For the same compound, the GI50 (SW-620) was > 100 µM (inactive), the GI50 (DMS-273) was > 100 µM (inactive) and the GI50 (SF-268) was > 100 µM (inactive). For the same compound, the GI50 (RPMI-8226) was 55.6 µM (inactive), the GI50 (HOP-92) was 46.1 µM (inactive) and the GI50 (HT-29) was 29.8 µM (inactive). For the same compound, the GI50 (786-0) was > 100 µM (inactive), the GI50 (CCRF-CEM) was > 100 µM (inactive) and the GI50 (SF-539) was > 100 µM (inactive). For the same compound, the GI50 (DLD-1) was 67.1 µM (inactive), the GI50 (HCC 2998) was > 100 µM (inactive) and the GI50 (RXF 393) was 20.5 µM (inactive). The GI50 (OVCAR-4) was > 100 µM (inactive), the GI50 (TK-10) was > 100 µM (inactive) and the GI50 (Malme-3M) was 90.8 µM (inactive). For the same compound, the GI50 (SK-MEL-2) was 98.4 µM (inactive), the GI50 (UO-31) was 33.6 µM (inactive) and the GI50 (MOLT-4) was 58.6 µM (inactive). The GI50 (SNB-78) was > 100 µM (inactive), the GI50 (HCT-15) was over 100 µM and the GI50 (OVCAR-8) was > 100 µM (inactive). The GI50 (SF-295) was > 100 µM (inactive), the GI50 (LOX IMVI) was > 100 µM (inactive) and the GI50 (LXFL 529) was > 100 µM (inactive). For the same compound, the GI50 (SNB-19) was 87.9 µM (inactive), the GI50 (COLO 205) was 12.9 µM (inactive) and the GI50 (UACC-257) was 51.1 µM (inactive).
